Assay results from ChEMBL document CHEMBL3046145, “Computational and experimental evaluation of ornithine derivatives as ornithine decarboxylase inhibitors” (Med Chem Res, 2009).
Activity calls are given as the source filed them. The rule behind the calls is not given here.

Assays:
[1] = Toxicity in ip dosed Mus musculus CD1 (mouse) assessed as mortality; type: organism-based; conditions: in vivo
[2] = target: T1, Ornithine decarboxylase (Rattus norvegicus) (UniProt P09057); experiment: Inhibition of Rattus norvegicus Wistar (rat) rat liver ODC assessed as inhibition of 14CO2 release from L-[14C]ornithine
T1 sequence (whole entry): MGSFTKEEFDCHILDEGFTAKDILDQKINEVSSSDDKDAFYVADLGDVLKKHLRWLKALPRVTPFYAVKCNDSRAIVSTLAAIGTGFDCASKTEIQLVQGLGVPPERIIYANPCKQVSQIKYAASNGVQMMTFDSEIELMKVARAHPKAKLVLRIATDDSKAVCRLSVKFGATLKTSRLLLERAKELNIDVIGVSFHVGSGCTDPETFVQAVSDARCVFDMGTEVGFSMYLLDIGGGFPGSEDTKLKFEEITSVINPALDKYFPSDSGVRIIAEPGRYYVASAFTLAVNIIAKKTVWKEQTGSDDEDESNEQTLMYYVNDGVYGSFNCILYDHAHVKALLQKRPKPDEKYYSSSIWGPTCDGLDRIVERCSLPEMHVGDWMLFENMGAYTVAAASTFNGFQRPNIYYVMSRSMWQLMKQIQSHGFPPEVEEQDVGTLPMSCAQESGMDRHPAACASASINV

Ornithine decarboxylase = target: T2, Ornithine decarboxylase (Homo sapiens, UniProt P11926); experiment: Binding affinity to ODC (unknown origin)
T2 sequence (P11926 whole entry): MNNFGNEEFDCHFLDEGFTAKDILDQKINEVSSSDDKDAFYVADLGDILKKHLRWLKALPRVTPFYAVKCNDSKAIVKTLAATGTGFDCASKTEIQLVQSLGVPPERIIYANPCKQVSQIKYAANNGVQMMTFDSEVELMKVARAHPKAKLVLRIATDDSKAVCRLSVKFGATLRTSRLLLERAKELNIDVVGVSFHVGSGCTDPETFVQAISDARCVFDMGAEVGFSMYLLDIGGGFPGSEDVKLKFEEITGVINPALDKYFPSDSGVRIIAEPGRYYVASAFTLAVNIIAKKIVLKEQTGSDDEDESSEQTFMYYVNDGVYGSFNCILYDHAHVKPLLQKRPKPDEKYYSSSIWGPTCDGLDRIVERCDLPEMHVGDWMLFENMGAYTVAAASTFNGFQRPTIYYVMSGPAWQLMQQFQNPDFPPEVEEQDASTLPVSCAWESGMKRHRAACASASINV

Rattus norvegicus = organism: Rattus norvegicus; experiment: Toxicity in Rattus norvegicus (rat); type: organism-based; conditions: in vivo

SMILES | LD50 [1] | inhibition [2] | Kd (Ornithine decarboxylase) | LD50 (Rattus norvegicus)
N[C@@H](CCCNC(=O)CCl)C(=O)O | 381 mg/kg | Active | 2500 µM | –
NCCC[C@H](N)C(=O)O [ORNITHINE] | – | – | 250 µM | –
NCCC[C@](N)(C(=O)O)C(F)F [EFLORNITHINE, (S)-] | – | – | – | 300 µg
NCCC[C@H](NN)C(=O)O [ALPHA-HYDRAZINE ORNITHINE] | – | – | 0.5 µM | –
NCCC[C@@](N)(CF)C(=O)O | – | – | 75 µM | –
